Consider five compounds from US20240124389A1, “COMPOUND OR SALT THEREOF, LIPID PARTICLES, AND PHARMACEUTICAL COMPOSITION” (FUJIFILM Corporation, priority 2021, published 2024).

In one data set the test system is PTEN ASO. Kind of data set: Encapsulation rate of PTEN ASO in lipid particles. The class given is physicochemical. The following applies: aminolipid 50 / DSPC 20 / cholesterol 28.5 / monostearyl PEG 1.5 mol %, lipid/nucleic acid 11.8 wt/wt. The procedure:
The first lipid, phospholipid, cholesterol, and polyethylene glycol lipid (PEG lipid) shown in Table 3 were dissolved in ethanol at the molar ratio shown in Table 3 such that the total lipid concentration was 20 mmol/L to obtain the oil phase.
As the neutral lipid, 1,2-Distearoyl-sn-glycero-3-phosphocholine (DSPC, product name: COATSOME MC-8080, NOF corporation) was used. As the cholesterol, cholesterol (product name: Cholesterol HP; Nippon Seika Co., Ltd.) was used. As the PEG lipid, monostearyl PEG (product name: Polyethylene Glycol Monostearate (4E.O.), FUJIFILM Wako Pure Chemical Corporation) was used.
5 mg of PTEN ASO was dissolved in 1 mL of sterile water and diluted with a 10 mmol/L acetate buffer having a pH of 4 such that the nucleic acid concentration was 54.6 μmol/L, to obtain a water phase. Then the water phase and the oil phase were mixed together with a micromixer (see JP5288254B) using a syringe pump such that the volume ratio of water phase:oil phase was 3:1, and the mixed solution was two-fold diluted with a phosphate buffered physiological saline (PBS), thereby obtaining a dispersion of nucleic acid lipid particles.
30 μL of 3 mol/L aqueous sodium acetate solution and 9 μL of glycogen were added to 60 μL of the lipid particles retaining nucleic acids, and then 1.5 mL of ethanol was added thereto, so that only the nucleic acids were precipitated while the lipid was dissolved. Then, the supernatant was removed by centrifugation. The precipitates were air-dried for 15 minutes or longer, then water was added thereto to redissolve the precipitates, and the concentration thereof was measured using Nanodrop ND1000 (Thermo Fisher Scientific), thereby quantifying the total nucleic acid concentration.
The mRNA concentration was quantified using a Quant-iT RiboGreen RNA Assay Kit (Thermo Fisher Scientific) according to the protocol. First, a 20×TE buffer included in the above-described kit was diluted with water, thereby obtaining a 1×TE buffer. TE represents Tris/EDTA (ethylenediaminetetraacetic acid). In order to quantify only the nucleic acid in the outer water phase, the dispersion liquid of lipid particles retaining nucleic acids was 10,000-fold diluted with the 1×TE buffer.
100 μL of the 10,000-fold diluted dispersion liquid of lipid particles was put into a 96-well plate, then 100 μL of a RiboGreen reagent (reagent included in the Quanti-iT Ribogreen RNA Assay Kit described above) 2,000-fold diluted with the 1×TE buffer was added to a sample, and fluorescence (excitation wavelength: 485 nm, fluorescence wavelength: 535 nm) was measured using a plate reader Infinite F200 (TECAN), thereby quantifying the nucleic acid concentration in the outer water phase.
By using the quantification results of the total nucleic acid concentration and the nucleic acid concentration in the outer water phase that were obtained through the above steps, the nucleic acid encapsulation rate of the nucleic acid lipid particles was calculated according to the following Equation.
Nucleic acid encapsulation rate (%)=(total nucleic acid concentration—nucleic acid concentration in outer water phase)/total nucleic acid concentration×100

Another data set has as its system PTEN mRNA. The data set is described as follows: PTEN mRNA knockdown in vitro (quantification of PTEN mRNA by PCR). The class given is cell-based, human. The following applies: SH-SY5Y cells; PTEN ASO lipid particles of Table 3, ASO 500 nmol/L, exposure 24 hours; PTEN mRNA by ΔΔCt method. From the text: An antisense oligonucleotide nucleic acid (PTEN ASO) for a PTEN protein was purchased from Hokkaido System Science Co., Ltd. PTEN ASO is an oligonucleotide consisting of 20 bases, in which nucleotides are connected by a phosphodiester bond, and the sequence of which is described below.
In an in vitro test using SH-SY5Y cells (American Type Culture Collection), E-MEM (gibco), Ham's F12 (gibco), FBS (gibco), Penicillin-streptomycin (gibco), and NEAA (FUJIFILM Wako Pure Chemical Corporation) were mixed at a ratio of 41.5:41.5:15:1:1 and the mixture was used as a culture medium.
The measurement of PTEN protein mRNA was performed according to the protocol of TaqMan (register trademark) Fast Advanced Cells-to-CT™ Kit (Thermo Fisher Scientific). To A431 cells or SH-SY5Y cells, a dispersion liquid of nucleic acid lipid particles prepared to have a final concentration of 500 nmol/L as an ASO concentration, Naked ASO or PBS was added. After exposure for 24 hours under the control of 37° C. and 5% CO2, the culture supernatant was removed, and the mixture was washed once with PBS at 4° C. After removing the PBS, a lysis solution was added at 50 μL/well, and the mixture was stood still for 5 minutes at room temperature to obtain a cell lysate. For the cell lysate, TaqMan (register trademark) Fast Advanced Cells-to-CT™ Kit (Thermo Fisher scientific), and Hs02621230_s1, FAM/MGB (Thermo Fisher Scientific) and Human GAPDH Endogenous Control (VIC (register trademark)/MGB, Thermo Fisher Scientific) as a PCR reaction reagent were used to perform reverse transcription and PCR reaction.
The PTEN mRNA level of each sample was calculated by the ΔΔCt method. Specifically, the Ct value of GAPDH is subtracted from the Ct value of PTEN to calculate the ΔCt value of each sample. The average value of the ΔCt values of the PBS treatment group was subtracted from the calculated ΔCt value to calculate the ΔΔCt value. For each ΔΔCt value, a relative value with respect to the Naked ASO to be compared was taken as a PTEN mRNA relative value.

Turning to `CCCCCCC(CCCC)COC(=O)CCCC(CCCCCC)OC(=O)OCCN(CCOC(=O)OC(CCCCCC)CCCC(=O)OCC(CCCC)CCCCCC)CCN(CC)CC` (stereo not shown) [Example 8, Bis(2-butyloctyl) 11-(2-(diethylamino)ethyl)-5,17-dihexyl-7,15-dioxo-6,8,14,16-tetraoxa-11-azahenicosanedioate], the “Nucleic acid encapsulation rate” value in the data set on PTEN ASO was determined as 93%. For the same compound, the “PTEN knockdown relative value with respect to Naked ASO” value (shortened to “PTEN knockdown relative value”) in the data set on PTEN mRNA stood at 0.65.

As for `CCCCCC(CCCCC)COC(=O)CCCC(CCC)OC(=O)OCCN(CCOC(=O)OC(CCC)CCCC(=O)OCC(CCCCC)CCCCC)CCN(CC)CC` (stereo not shown) [Example 21, Bis(2-pentylheptyl) 11-(2-(diethylamino)ethyl)-7,15-dioxo-5,17-dipropyl-6,8,14,16-tetraoxa-11-azahenicosanedioate], the “Nucleic acid encapsulation rate” value with PTEN ASO turned out to be 96%. For the same compound, the “PTEN knockdown relative value” value in the data set with PTEN mRNA is 0.33.

Turning to `CCCCCCCOC(=O)CCCC(CCCC(=O)OCCCCCCC)OC(=O)OCCN(CCOC(=O)OC(CCCC(=O)OCCCCCCC)CCCC(=O)OCCCCCCC)CCN(CC)CC` [Example 29, diheptyl 11-(2-(diethylamino)ethyl)-5,17-bis(4-(heptyloxy)-4-oxobutyl)-7,15-dioxo-6,8,14,16-tetraoxa-11-azahenicosanedioate], the “Nucleic acid encapsulation rate” value in the data set with PTEN ASO stood at 92%. Further, the “PTEN knockdown relative value” value in the data set on PTEN mRNA worked out at 0.80.

As for `CCCCCCCOC(=O)CCCC(CCCC(=O)OCCCCCCC)OC(=O)OCCN(CCOC(=O)OC(CCCC(=O)OCCCCCC)CCCC(=O)OCCCCCC)CCN(CC)CC` [Example 37, 1-Heptyl 21-hexyl 11-(2-(diethylamino)ethyl)-5-(4-(heptyloxy)-4-oxobutyl)-17-(4-(hexyloxy)-4-oxobutyl)-7,15-d ioxo-6,8,14,16-tetraoxa-11-azahenicosanedioate], the “Nucleic acid encapsulation rate” value in the data set with PTEN ASO came to 92%. In the data set with PTEN mRNA, the “PTEN knockdown relative value” value was 0.83.

`CCCCCCC(CCCC(=O)OCC(CCCCC)CCCCC)OC(=O)OCCN(CCCN(CC)CC)CCOC(=O)OC(CCCCCC)CCCC(=O)OCC(CCCCC)CCCCC` (stereo not shown) [Example 13, Bis(2-pentylheptyl) 11-(3-(diethylamino)propyl)-5,17-dihexyl-7,15-dioxo-6,8,14,16-tetraoxa-11-azahenicosanedio ate]: the “Nucleic acid encapsulation rate” value in the data set with PTEN ASO was 97%. The “PTEN knockdown relative value” value in the data set with PTEN mRNA was 0.34.
